According to article PMC8868508, “Kassporin-KS1: A Novel Pentadecapeptide from the Skin Secretion of Kassina senegalensis: Studies on the Structure-Activity Relationships of Site-Specific “Glycine-Lysine” Motif Insertions” (Antibiotics, 2022):
Converted amounts (≈) assume the structure as drawn. Where two headings read alike, the source gives them in different places. Where a SMILES comes first, the peptide text is derived from it.

Experiments:
[1] = test system: S. aureus NCTC 10788; format: cell-based, Staphylococcus aureus
Description: (§1) The inhibition of representative microorganisms by peptides was evaluated by the modified broth dilution technique. The microorganisms included Candida albicans (C. albicans, NCTC 10231), Enterococcus faecalis (E. faecalis, NCTC 12697), Staphylococcus aureus (S. aureus, NCTC 10788), Klebsiella pneumoniae (K. pneumoniae, ATCC 43816), Methicillin-resistant Staphylococcus aureus (MRSA, ATCC 12493), Pseudomonas aeruginosa (P. aeruginosa, ATCC 27853), and Escherichia coli (E. coli, NCTC 10418).
(§2) Firstly, the selected microorganism was incubated in conical flasks with 100 mL Mueller Hinton broth (MHB) overnight. Then, the bacterial solution was sub-cultured in 20 mL MHB until it reached the logarithmic growth phase. Meanwhile, the peptide solution was prepared. The peptide was dissolved into 128 × 10^2 μM solution with phosphate-buffered saline (PBS) and then double-diluted into 64, 32, 16, 8, 4, 2, and 1 × 10^2 μM. Each sample solution and positive control ([…] Norfloxacin) was added to 96-well plates and divided into five replicates, 1 μL per well. The blank control was 100 µL MHB, and the growth control was 100 µL bacterial solutions. When the optical density (OD) value corresponding to the microbial concentration reached the value (Gram-positive bacteria: 0.23; Gram-negative bacteria: 0.4; fungi: 0.15) in their logarithmic growth phase, the microorganisms were diluted to the required concentration with MHB (Gram-negative and Gram-positive bacteria: 5 × 10^5 CFU/mL; fungi: 1 × 10^6 CFU/mL).
(§3) The diluted bacterial solution was then added to the 96-well plate at 99 µL per well. The plate was incubated at 37 °C and observed the next day. The MIC was the corresponding lowest peptide concentration without microbial growth. The absorbance of the 96-well plate at 550 nm was measured by Synergy HT Microplate Spectrophotometer (Biotech, Minneapolis, MN, USA), and the obtained values were quantitatively analyzed by Prism 7 software. Subsequently, the concentrations corresponding to the clear solution were removed from the 96-well plate in 10 µL and dropped onto the solidified MHA. The Petri dishes with MHA were cultured overnight, observed and the minimum peptide concentration without colonies was MBC.

[2] = test system: E. coli NCTC 10418; format: cell-based, Escherichia coli
Description: as §1, §2, §3

[3] = test system: C. albicans NCTC 10231; format: cell-based, Candida albicans
Description: as §1, §2, §3

[4] = test system: MRSA NCTC 12493; format: cell-based, Methicillin-resistant Staphylococcus aureus
[5] = test system: K. pneumoniae ATCC 43816; format: cell-based, Klebsiella pneumoniae
Description: as §1, §2, §3

[6] = test system: E. faecalis NCTC 12697; format: cell-based, Enterococcus faecalis
Description: as §1, §2, §3

[7] = test system: P. aeruginosa ATCC 27853; format: cell-based, Pseudomonas aeruginosa
Description: as §1, §2, §3

[8] = test system: S. aureus NCTC 10788 biofilm; format: cell-based, Staphylococcus aureus; conditions: NCTC 10788, 24 h
Description: (§4) As previously described, the MBIC and MBEC of the peptides against bacteria were determined. Staphylococcus aureus (S. aureus, NCTC 10788) and Escherichia coli (E. coli, NCTC 10418) was selected as representative strains. For the MBIC assay, the cultures were sub-cultured to their logarithmic growth phases. The diluted bacterial suspension was incubated with the peptide solution overnight in a 96-well plate. The resulting biofilm was washed with PBS solution, fixed with methanol, and dried. The biofilm was then stained with 0.1% (w/v) crystal violet, washed again with PBS, and dissolved in 30% acetic acid. The absorbance of the solution in each well at 595 nm was counted by the Synergy HT Microplate Spectrophotometer (Biotech, Minneapolis, MN, USA). Compared with the negative control, the lowest concentration that inhibits biofilm formation was MBIC. For the determination of MBEC, the diluted bacterial solution was incubated in the 96-well plate for 24 h, with 100 µL per well. Then, the biofilm was washed and re-incubated with 100 µL peptide-medium solution. After 24 h, the biofilm was again washed, stained, and dissolved as in the MBIC assay. Each well was detected at 595 nm by the same plate reader in MBIC. Compared with the negative control, the lowest concentration to eliminate biofilm was MBEC.

[9] = test system: E. coli NCTC 10418 biofilm; format: cell-based, Escherichia coli; conditions: NCTC 10418, 24 h
Description: as §4

[10] = test system: S. aureus NCTC 10788; format: cell-based, Staphylococcus aureus; remark: listed apart in the source
Description: As mentioned in the previous study, the salt and pH sensitivities of AMPs exposed to physiological concentrations of salts or non-neutral environments were tested. MHB containing different ion concentrations (150 mM NaCl, 1 mM MgCl2, and 4 μM FeCl3) and MHB with pH 6.0 and pH 8.0 were prepared. The selected microorganism Staphylococcus aureus (S. aureus, NCTC 10788) was incubated overnight in the prepared medium, sub-cultured to the logarithmic phase, and then diluted to 5 × 10^5 CFU/mL. The subsequent steps were carried out as the MIC/MBC assay.

[11] = test system: S. aureus infected Galleria mellonella larvae; conditions: in vivo
Description: Galleria mellonella larvae of equal weight were injected with bacterial suspensions to observe the peptides’ efficacy. First, the wax worm larvae were weighed (Livefood UK Ltd., Rooks Bridge, UK). The appropriate weight for the assay was 250 ± 25 mg. Then, S. aureus NCTC 10788 was cultured in sterilized saline until the bacterial suspension density reached 10^8 CFU/mL. […] Then, 10 µL peptide solutions were injected into the larvae at 6, 12, and 24 mg/kg. The positive control was the dosage of 20 mg/kg Vancomycin. The negative control was the administration of saline. In total, nine wax worms were included in each group. After being injected, the number of larvae deaths was recorded every 12 h until it reached 120 h.

SMILES: CC[C@H](C)[C@H](NC(=O)[C@H](C)NC(=O)[C@H](CCC(=O)O)NC(=O)[C@H](CCC(N)=O)NC(=O)[C@@H](NC(=O)[C@H](CC(C)C)NC(=O)[C@H](C)NC(=O)[C@H](CC(C)C)NC(=O)[C@H](C)NC(=O)[C@H](CC(C)C)NC(=O)[C@@H](N)Cc1ccccc1)[C@@H](C)CC)C(=O)N[C@@H](C)C(=O)N[C@@H](CCCCN)C(=O)N[C@@H](CC(C)C)C(=O)N[C@@H](CCCCN)C(N)=O [QUB-1641] (H-FLALALIQEAIAKLK-NH2)
- MBC [1]: 64 µM
- MIC [1]: 64 µM
- MBC [2]: > 128 µM
- MIC [2]: > 128 µM
- MBC [3]: > 128 µM
- MIC [3]: > 128 µM
- MBC [4]: 128 µM (≈ 210 µg/mL)
- MIC [4]: 64 µM (≈ 105 µg/mL)
- MBC [5]: > 128 µM
- MIC [5]: > 128 µM
- MBC [6]: 128 µM
- MIC [6]: 64 µM
- MBC [7]: > 128 µM
- MIC [7]: > 128 µM
- MBEC [8]: 128/>128 µM
- MBIC [8]: 128/>128 µM
- MBEC [9]: >128/>128 µM
- MBIC [9]: >128/>128 µM
- MBC [10]: > 128 µM
- effect of injection on larvae [11]: causing the larvae to die directly after injection
